Source: patent US10723754B2, “2′,4′-bridged nucleosides for HCV infection” (IDENIX PHARMACEUTICALS LLC, priority 2012, dated 2020)

system: not listed separately; assay: in vitro; conditions: human

Which CC50 at 72 h does the source give for `Nc1nc2c(ncn2[C@@H]2O[C@@]3(CO)CN[C@@H]2[C@@H]3O)c(=O)[nH]1` [Compound 38] here?
The CC50 at 72 h was greater than 50 µM.

biological target: T1, HCV genotype 1b NS5B protein containing the S282T mutation (Hepatitis C virus genotype 1b, UniProt Q9WMX2, S2701T); assay: HCV polymerase enzyme assay, S282T 1b; assay type: biochemical; conditions: not given
T1 construct: approximately 65 kDa HCV genotype 1b NS5B protein; made in house
From the text: (§1) Test compounds in the form of nucleoside triphosphates were examined for inhibitory activity against purified HCV polymerase in a standard assay. Bacterial expression constructs encoding the approximately 65 kDa HCV genotype 1b NS5B protein were used to generate recombinant HCV polymerases (with a deletion of the 21 carboxy terminal amino acids). The wild-type genotype 1b protein, genotype 1b protein containing the S282T mutation, wild-type genotype 1a protein, wild-type genotype 2a protein, wild-type genotype 3a protein and wild-type genotype 4a protein were expressed and purified for use in the enzymatic activity assay.
(§2) The enzymatic activity assay measured the inhibitory effect of increasing concentrations of test compound on the incorporation of α-[^33P]-labeled nucleotide into trichloroacetic acid-precipitable material. Recombinant polymerase and synthetic RNA template were combined in reaction buffer containing ribonucleoside triphosphates, α-[^33P]-labeled nucleotide and eight concentrations of test compound in three-fold dilutions. Reactions were incubated for two hours at 30° C.
(§3) Reactions were terminated by the addition of ice-cold trichloroacetic acid and sodium pyrophosphate to promote precipitation of newly-synthesized ribonucleic acid. Precipitable material from the reactions was collected by filtration onto 96-well filter plates, washed extensively with water, and quantified by liquid scintillation.
(§4) The inhibitory activity of test compounds was determined by fitting results to dose-response curves using XLfit software.

For `CCOc1nc(N)nc2c1ncn2[C@@H]1O[C@@]2(COP(=O)(N[C@@H](C)C(=O)OC(C)C)Oc3ccccc3)CO[C@@H]1[C@@H]2O` (some centres unmarked) [Compound 25], which IC50 is on record?
The IC50 was 0.25 to 1 µM.

same assay, conditions: purified recombinant polymerase; compounds as nucleoside triphosphates; read-out: S282T 1b IC50

With `CC(OP(=O)(O)OP(=O)(O)OP(=O)(O)O)C12COC(C(n3cnc4c(=O)[nH]c(N)nc43)O1)C2O` (single isomer, unassigned) [Compound 102 Diastereomer 1] as the compound, how does the IC50 read?
Its IC50 is greater than 10 µM.

Which IC50 does the source give for `CC(OP(=O)(O)OP(=O)(O)OP(=O)(O)O)C12COC(C(n3cnc4c(=O)[nH]c(N)nc43)O1)C2O` (single isomer, unassigned) [Compound 102 Diastereomer 2] here?
The IC50 was greater than 10 µM.

For `Nc1ncnc2c1ncn2[C@@H]1O[C@@]2(COP(=O)(O)OP(=O)(O)OP(=O)(O)O)CO[C@@H]1[C@@H]2O` [Compound 101], which IC50 is on record?
Its IC50 is greater than 10 µM.

Which IC50 does the source give for `Nc1nc2c(ncn2[C@@H]2O[C@@]3(COP(=O)(O)OP(=O)(O)OP(=O)(O)O)CO[C@@H]2[C@@H]3O)c(=O)[nH]1` [Compound 103] here?
Its IC50 is 0.25 to 1 µM.

Which IC50 does the source give for `C[C@H](OP(=O)(O)OP(=O)(O)OP(=O)(O)O)[C@@]12CO[C@@H]([C@H](n3ccc(=O)[nH]c3=O)O1)[C@@H]2O` [Compound 104a] here?
Its IC50 is greater than 10 µM.

With `C[C@@H](OP(=O)(O)OP(=O)(O)OP(=O)(O)O)[C@@]12CO[C@@H]([C@H](n3ccc(=O)[nH]c3=O)O1)[C@@H]2O` [Compound 104b] as the compound, how does the IC50 read?
Its IC50 is greater than 10 µM.

For `C[C@]12OC[C@](COP(=O)(O)OP(=O)(O)OP(=O)(O)O)(O[C@H]1n1cnc3c(=O)[nH]c(N)nc31)[C@H]2O` [Compound 106], which IC50 is on record?
Its IC50 is 0.25 to 1 µM.

With `Nc1ccn([C@@H]2O[C@@]3(COP(=O)(O)OP(=O)(O)OP(=O)(O)O)CO[C@@H]2[C@@H]3O)c(=O)n1` [Compound 107] as the compound, how does the IC50 read?
The IC50 was 1 to 10 µM.

With `O=c1ccn([C@@H]2O[C@@]3(COP(=O)(O)OP(=O)(O)OP(=O)(O)O)CO[C@@H]2[C@@H]3O)c(=O)[nH]1` [Compound 108] as the compound, how does the IC50 read?
Its IC50 is greater than 10 µM.

system: HCV genotype 1b replicon in Huh-7-derived cell line (Zluc); assay: HCV replicon assay (luciferase reporter); assay type: cell-based; conditions: Hepatitis C virus, Zluc cells, 72 hours of incubation
Description: Huh-7-derived cell line (Zluc) that harbors an HCV genotype 1b replicon and a luciferase reporter gene was grown in Dulbecco's Modified Eagle Medium (DMEM) supplemented with 10% fetal bovine serum, 2 mM GlutaMAX, 1% MEM nonessential amino acids, 100 IU/mL penicillin, 100 μg/mL streptomycin, and 0.5 mg/mL Geneticin® (G418). For dose response testing the cells were seeded in 96-well plates at 7.5×10^3 cells per well in a volume of 50 μL, and incubated at 37° C./5% CO2. Drug solutions were made up freshly in Huh-7 media as 2× stocks. Ten additional 5-fold dilutions were prepared from these stocks in DMEM without G418. At least three hours after Zluc cells were seeded, drug treatment was initiated by adding 50 μL of drug dilutions to the plates in duplicate. Final concentrations of drug ranged from 100 μM to […]. Cells were then incubated at 37° C./5% CO2. Alternatively, compounds were tested at two concentrations (1 μM and 10 μM). […] For this, media was removed from the plates via gentle tapping. Fifty microliters of ONE-glo luciferase assay reagent was added to each well. The plates were shaken gently for 3 min at room temperature and luminescence was measured on a Victor^3 V 1420 multilabel counter (Perkin Elmer) with a 1 second read time using a 700 nm cut-off filter. The EC50 values were calculated from dose response curves from the resulting best-fit equations determined by Microsoft Excel and XLfit 4.1 software. When screening at two fixed concentrations, the results were expressed as % inhibition at 1 μM and 10 μM.

With `[N-]=[N+]=N[C@H]1[C@H]2OC[C@]1(CO)O[C@H]2n1ccc(=O)[nH]c1=O` [Compound 33] as the compound, how does the EC50 read?
The EC50 was greater than 10 µM.

With `CC(=O)N[C@H]1[C@H]2OC[C@]1(CO)O[C@H]2n1ccc(=O)[nH]c1=O` [Compound 35] as the compound, how does the EC50 read?
The EC50 was greater than 10 µM.

For `CS(=O)(=O)N[C@H]1[C@H]2OC[C@]1(CO)O[C@H]2n1ccc(=O)[nH]c1=O` [Compound 36], which EC50 is on record?
Its EC50 is greater than 10 µM.

For `COC(=O)N[C@H]1[C@H]2OC[C@]1(CO)O[C@H]2n1ccc(=O)[nH]c1=O` [Compound 37], which EC50 is on record?
The EC50 was greater than 10 µM.

With `Nc1nc2c(ncn2[C@@H]2O[C@@]3(CO)CN[C@@H]2[C@@H]3O)c(=O)[nH]1` [Compound 38] as the compound, how does the EC50 read?
Its EC50 is greater than 10 µM.

biological target: T2, HCV wild-type genotype 1b NS5B protein (Hepatitis C virus genotype 1b, UniProt Q9WMX2); assay: HCV polymerase enzyme assay, wild-type 1b; assay type: biochemical; conditions: not given
T2 construct: approximately 65 kDa HCV genotype 1b NS5B protein; made in house
From the text: as §1, §2, §3, §4

With `CC(OP(=O)(O)OP(=O)(O)OP(=O)(O)O)C12COC(C(n3cnc4c(=O)[nH]c(N)nc43)O1)C2O` (single isomer, unassigned) [Compound 102 Diastereomer 2] as the compound, how does the IC50 read?
The IC50 was greater than 10 µM.

Which IC50 does the source give for `CCOc1nc(N)nc2c1ncn2[C@@H]1O[C@@]2(COP(=O)(N[C@@H](C)C(=O)OC(C)C)Oc3ccccc3)CO[C@@H]1[C@@H]2O` (some centres unmarked) [Compound 25] here?
The IC50 was 0.25 to 1 µM.

Which IC50 does the source give for `Nc1ncnc2c1ncn2[C@@H]1O[C@@]2(COP(=O)(O)OP(=O)(O)OP(=O)(O)O)CO[C@@H]1[C@@H]2O` [Compound 101] here?
The IC50 was greater than 10 µM.

With `Nc1nc2c(ncn2[C@@H]2O[C@@]3(COP(=O)(O)OP(=O)(O)OP(=O)(O)O)CO[C@@H]2[C@@H]3O)c(=O)[nH]1` [Compound 103] as the compound, how does the IC50 read?
Its IC50 is 0.25 to 1 µM.

Which IC50 does the source give for `C[C@H](OP(=O)(O)OP(=O)(O)OP(=O)(O)O)[C@@]12CO[C@@H]([C@H](n3ccc(=O)[nH]c3=O)O1)[C@@H]2O` [Compound 104a] here?
The IC50 was greater than 10 µM.

For `C[C@@H](OP(=O)(O)OP(=O)(O)OP(=O)(O)O)[C@@]12CO[C@@H]([C@H](n3ccc(=O)[nH]c3=O)O1)[C@@H]2O` [Compound 104b], which IC50 is on record?
The IC50 was greater than 10 µM.

With `C[C@]12OC[C@](COP(=O)(O)OP(=O)(O)OP(=O)(O)O)(O[C@H]1n1cnc3c(=O)[nH]c(N)nc31)[C@H]2O` [Compound 106] as the compound, how does the IC50 read?
Its IC50 is less than 0.25 µM.

For `Nc1ccn([C@@H]2O[C@@]3(COP(=O)(O)OP(=O)(O)OP(=O)(O)O)CO[C@@H]2[C@@H]3O)c(=O)n1` [Compound 107], which IC50 is on record?
Its IC50 is 1 to 10 µM.

With `O=c1ccn([C@@H]2O[C@@]3(COP(=O)(O)OP(=O)(O)OP(=O)(O)O)CO[C@@H]2[C@@H]3O)c(=O)[nH]1` [Compound 108] as the compound, how does the IC50 read?
Its IC50 is 1 to 10 µM.

With `[N-]=[N+]=N[C@H]1[C@H]2OC[C@]1(COP(=O)(O)OP(=O)(O)OP(=O)(O)O)O[C@H]2n1ccc(=O)[nH]c1=O` [Compound 401] as the compound, how does the IC50 read?
Its IC50 is greater than 10 µM.

With `C[C@H]1O[C@H]2[C@H](n3cnc4c(=O)[nH]c(N)nc43)O[C@]1(COP(=O)(O)OP(=O)(O)OP(=O)(O)O)[C@H]2O` [Compound 426] as the compound, how does the IC50 read?
The IC50 was greater than 10 µM.

With `C[C@H]1O[C@H]2[C@H](n3ccc(=O)[nH]c3=O)O[C@]1(COP(=O)(O)OP(=O)(O)OP(=O)(O)O)[C@H]2O` [Compound 427] as the compound, how does the IC50 read?
The IC50 was greater than 10 µM.

With `Nc1nc2c(ncn2[C@@H]2O[C@@]3(COP(=O)(O)OP(=O)(O)OP(=O)(O)O)CN[C@@H]2[C@@H]3O)c(=O)[nH]1` [Compound 570] as the compound, how does the IC50 read?
The IC50 was greater than 10 µM.

With `N[C@H]1[C@H]2OC[C@]1(COP(=O)(O)OP(=O)(O)OP(=O)(O)O)O[C@H]2n1ccc(=O)[nH]c1=O` [Compound 571] as the compound, how does the IC50 read?
Its IC50 is greater than 10 µM.

biological target: T3, HCV polymerase wild-type genotype 1a protein (Hepatitis C virus genotype 1a, UniProt P27958); assay: HCV polymerase enzyme assay, wild-type 1a; assay type: biochemical; conditions: not given
T3 construct: used to generate recombinant HCV polymerases; made in house
T3 sequence (P27958 2421-2990): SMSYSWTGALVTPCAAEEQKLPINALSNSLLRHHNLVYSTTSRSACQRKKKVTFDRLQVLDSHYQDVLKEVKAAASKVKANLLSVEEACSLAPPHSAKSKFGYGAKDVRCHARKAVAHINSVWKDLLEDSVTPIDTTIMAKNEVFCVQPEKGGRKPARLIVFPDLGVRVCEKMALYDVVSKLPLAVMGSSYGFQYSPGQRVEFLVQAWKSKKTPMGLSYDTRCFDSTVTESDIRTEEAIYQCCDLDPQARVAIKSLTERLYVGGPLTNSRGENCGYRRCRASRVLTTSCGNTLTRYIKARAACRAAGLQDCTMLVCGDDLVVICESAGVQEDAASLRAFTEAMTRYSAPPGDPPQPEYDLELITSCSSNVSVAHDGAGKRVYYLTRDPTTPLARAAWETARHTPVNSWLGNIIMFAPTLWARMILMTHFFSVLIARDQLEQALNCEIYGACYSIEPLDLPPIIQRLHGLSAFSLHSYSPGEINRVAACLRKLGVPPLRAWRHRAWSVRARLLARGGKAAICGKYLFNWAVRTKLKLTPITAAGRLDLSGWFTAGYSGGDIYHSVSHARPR
From the text: as §1
(§5) The enzymatic activity assay measured the inhibitory effect of increasing concentrations of test compound on the incorporation of α-[^33P]-labeled nucleotide into trichloroacetic acid-precipitable material. […]
as §3, §4

Which IC50 does the source give for `Nc1nc2c(ncn2[C@@H]2O[C@@]3(COP(=O)(O)OP(=O)(O)OP(=O)(O)O)CO[C@@H]2[C@@H]3O)c(=O)[nH]1` [Compound 103] here?
Its IC50 is 0.25 to 1 µM.

biological target: T4, HCV polymerase wild-type genotype 3a protein (Hepatitis C virus genotype 3a, UniProt Q81258); assay: HCV polymerase enzyme assay, wild-type 3a; assay type: biochemical; conditions: purified recombinant polymerase; compounds as nucleoside triphosphates
T4 construct: used to generate recombinant HCV polymerases; made in house
T4 sequence (Q81258 2431-3000): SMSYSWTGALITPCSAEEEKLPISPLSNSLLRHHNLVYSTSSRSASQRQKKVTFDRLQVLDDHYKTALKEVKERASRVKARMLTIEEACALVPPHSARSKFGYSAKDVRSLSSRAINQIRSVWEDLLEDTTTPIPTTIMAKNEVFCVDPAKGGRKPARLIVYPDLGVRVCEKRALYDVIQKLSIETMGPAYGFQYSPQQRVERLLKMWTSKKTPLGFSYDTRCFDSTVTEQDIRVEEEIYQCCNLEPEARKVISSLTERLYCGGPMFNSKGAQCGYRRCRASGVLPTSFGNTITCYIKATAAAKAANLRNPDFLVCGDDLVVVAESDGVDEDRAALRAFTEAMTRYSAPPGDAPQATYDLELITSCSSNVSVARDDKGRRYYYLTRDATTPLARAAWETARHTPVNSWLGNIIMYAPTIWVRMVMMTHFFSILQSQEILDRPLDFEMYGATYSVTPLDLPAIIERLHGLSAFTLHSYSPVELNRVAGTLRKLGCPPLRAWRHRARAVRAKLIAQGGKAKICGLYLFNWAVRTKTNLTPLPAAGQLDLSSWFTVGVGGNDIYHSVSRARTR
From the text: as §1, §5, §3, §4

For `Nc1nc2c(ncn2[C@@H]2O[C@@]3(COP(=O)(O)OP(=O)(O)OP(=O)(O)O)CO[C@@H]2[C@@H]3O)c(=O)[nH]1` [Compound 103], which IC50 is on record?
Its IC50 is less than 0.25 µM.

biological target: T5, HCV polymerase wild-type genotype 4a protein (Hepatitis C virus genotype 4a, UniProt O39929); assay: HCV polymerase enzyme assay, wild-type 4a; assay type: biochemical; conditions: purified recombinant polymerase; compounds as nucleoside triphosphates
T5 construct: used to generate recombinant HCV polymerases; made in house
T5 sequence (O39929 2418-2987): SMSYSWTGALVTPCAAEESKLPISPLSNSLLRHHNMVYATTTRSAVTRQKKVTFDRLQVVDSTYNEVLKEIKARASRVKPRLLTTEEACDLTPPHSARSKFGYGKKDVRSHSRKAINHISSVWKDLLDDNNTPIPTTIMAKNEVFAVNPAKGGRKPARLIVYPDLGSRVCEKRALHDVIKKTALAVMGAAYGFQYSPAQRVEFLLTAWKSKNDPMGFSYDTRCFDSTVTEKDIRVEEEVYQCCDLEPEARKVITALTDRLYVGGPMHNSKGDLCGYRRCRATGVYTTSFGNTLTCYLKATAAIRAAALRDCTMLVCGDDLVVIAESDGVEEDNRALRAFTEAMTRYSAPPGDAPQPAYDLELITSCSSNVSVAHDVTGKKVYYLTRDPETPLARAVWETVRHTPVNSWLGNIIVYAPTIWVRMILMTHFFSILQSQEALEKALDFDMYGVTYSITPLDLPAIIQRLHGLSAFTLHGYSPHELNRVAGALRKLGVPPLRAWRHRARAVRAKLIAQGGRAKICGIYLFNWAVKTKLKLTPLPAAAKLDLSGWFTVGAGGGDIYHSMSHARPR
From the text: as §1, §5, §3, §4

Which IC50 does the source give for `Nc1nc2c(ncn2[C@@H]2O[C@@]3(COP(=O)(O)OP(=O)(O)OP(=O)(O)O)CO[C@@H]2[C@@H]3O)c(=O)[nH]1` [Compound 103] here?
Its IC50 is 0.25 to 1 µM.

biological target: T6, HCV polymerase wild-type genotype 2a protein (Hepatitis C virus genotype 2a, UniProt Q99IB8); assay: HCV polymerase enzyme assay, wild-type 2a; assay type: biochemical; conditions: purified recombinant polymerase; compounds as nucleoside triphosphates
T6 construct: used to generate recombinant HCV polymerases; made in house
From the text: as §1, §5, §3, §4

Which IC50 does the source give for `Nc1nc2c(ncn2[C@@H]2O[C@@]3(COP(=O)(O)OP(=O)(O)OP(=O)(O)O)CO[C@@H]2[C@@H]3O)c(=O)[nH]1` [Compound 103] here?
The IC50 was 0.25 to 1 µM.

system: not listed separately; assay: Cytotoxicity evaluation (CellTiter-Blue Cell Viability Assay); conditions: human

With `[N-]=[N+]=N[C@H]1[C@H]2OC[C@]1(CO)O[C@H]2n1ccc(=O)[nH]c1=O` [Compound 33] as the compound, how does the CC50 at 72 h read?
The CC50 at 72 h was greater than 50 µM.

With `CC(=O)N[C@H]1[C@H]2OC[C@]1(CO)O[C@H]2n1ccc(=O)[nH]c1=O` [Compound 35] as the compound, how does the CC50 at 72 h read?
The CC50 at 72 h was greater than 50 µM.

For `CS(=O)(=O)N[C@H]1[C@H]2OC[C@]1(CO)O[C@H]2n1ccc(=O)[nH]c1=O` [Compound 36], which CC50 at 72 h is on record?
The CC50 at 72 h was greater than 50 µM.

Which CC50 at 72 h does the source give for `COC(=O)N[C@H]1[C@H]2OC[C@]1(CO)O[C@H]2n1ccc(=O)[nH]c1=O` [Compound 37] here?
Its CC50 at 72 h is greater than 50 µM.
